These results are taken from US20240284907A1, “NOVEL DERIVATIVES OF NON-CODED AMINO ACIDS AND THEIR USE AS HERBICIDES” (FortePhest LTD., priority 2021, published 2024).

In this test the test system is Seeds of Lettuce R. (Super-Jericho). In words: Filter paper bioassay with lettuce seeds: germination and early plant development, Minimal Effective Concentration (MEC). In kind it is in vivo. As to conditions: lettuce seeds on filter paper, 0 to 1 mmol/l, visually assessed after 6 days. From the text:
Materials: Seeds of Lettuce R. (Super-Jericho, non-sterilized) were obtained from Ben Shahar Moshe Ltd., 99% purity. The test compounds listed in the Table 2 below were synthetized de novo or purchased from different vendors.
Filter Paper Bioassays with Lettuce seeds: The protocol is following Bertin et al. 2009 and Movellan et al. 2014 with specified modifications as described below.
Seeds were placed on Whatman no. 1 filter paper (Whatman, Middlesex, U.K.) in Petri dishes (10 seeds per plate) with 2.0 ml of aqueous solution of a test material in concentration ranged from 0 (control) to 1 mmol/l were placed in a tray tilted at 45[…]. The trays were kept in dark for 48 hours and then transferred to the growth chamber with 6/18 dark/light cycle for 4 days. Each experiment was performed at least with two repeats.
The development of plants' radicle and shoots were visually assessed 6 days after the beginning of the test to determine Minimal Effective Concentration (MEC) of a test material. In the context of the invention, MEC is defined as the lowest concentration level of a test material that caused deviation (absence of germination or malformation of radicle or shoots) from the plant's development in the Control group.
As to “2-(2-bromopyridin-4-yl)ethan-1-amine [compound 688]”, the “Score (activity score of Minimal Effective Concentration, MEC)” value (“Score” for short) is recorded as “Weak (Higher than 0.1 mM)”.
Regarding `O=C(Cc1ccccc1)NCCc1cc(Cl)sc1Cl` [compound 5708, N-[2-(2,5-dichlorothiophen-3-yl)ethyl]-2-phenylacetamide], the “Score” value is reported as “Moderate (0.1 mM)”.
Under “naphthalene-2-carboxylic acid [compound 691]” stands “Weak (Higher than 0.1 mM)”; under `O=C(O)C(F)(F)c1nnn[nH]1` [compound 5799, difluoro(1H-tetrazol-5-yl)acetic acid], “Moderate (0.1 mM)”; under `O=C(O)/C=C/c1ccnc(Br)c1[N+](=O)[O-]` [compound 6631, (2E)-3-(2-bromo-3-nitropyridin-4-yl)prop-2-enoic acid], “Moderate (0.1 mM)”.
For `O=C(O)c1ccc2ccnc(Cl)c2c1` [compound 6627, 1-chloroisoquinoline-7-carboxylic acid], the “Score” value was “Moderate (0.1 mM)”.
Under “2-bromopyridine-4-carboxylic acid [compound 692]” stands “Weak (Higher than 0.1 mM)”; under “N-[2-(2,5-dichlorothiophen-3-yl)ethyl]-N′-(2-hydroxypropyl)guanidine [compound 5727]”, “Moderate (0.1 mM)”; under `NC(N)=NCCCc1cc(Cl)sc1Cl` [compound 5765, N″-[3-(2,5-dichlorothiophen-3-yl)propyl]guanidine], “Strong (0.01 mM)”.
As for `O=C(O)c1cnc2sc(Cl)nc2c1` [compound 5683, 2-chloro[1,3]thiazolo[54-b]pyridine-6-carboxylic acid], the “Score” value is given as “Moderate (0.1 mM)”.
Take “3-(1H-1,2,4-triazol-1-yl)propanoic acid [compound 5628]”: the “Score” value was “Weak (Higher than 0.1 mM)”.
The same measure for `O=C(O)Cc1ccc(Oc2ccncc2)cc1` [compound 6615, 2-[4-(pyridin-4-yloxy)phenyl]acetic acid]: “Weak (Higher than 0.1 mM)”; for “(2E)-3-(3-chloro-1H-1,2,4-triazol-5-yl)prop-2-enoic acid [compound 5621]”: “Weak (Higher than 0.1 mM)”.
`O=C(O)/C=C/c1cccc(Cl)n1` [compound 6603, (2E)-3-(6-chloropyridin-2-yl)prop-2-enoic acid]: the “Score” value is “Weak (Higher than 0.1 mM)”.
Regarding “2-{[(2,5-dichlorothiophen-3-yl)methyl]amino}acetic acid [compound 5615]”, the “Score” value is “Weak (Higher than 0.1 mM)”.
For the compound `O=C(O)C(=O)c1c(Cl)sc(Cl)c1Cl` [compound 5645, 2-oxo-2-(245-trichlorothiophen-3-yl)acetic acid], the “Score” value was “Strong (0.01 mM)”.
With `CNNC(=O)Cc1csc(Cl)n1` [compound 5715, 2-(2-chloro-1,3-thiazol-4-yl)-N′-methyl acetohydrazide], the “Score” value is “Moderate (0.1 mM)”.
Under `O=C(O)Cc1csc(-c2ncc(Cl)cc2F)n1` [compound 5716, 2-[2-(5-chloro-3-fluoropyridin-2-yl)-1,3-thiazol-4-yl]acetic acid] stands “Moderate (0.1 mM)”; under `NC(Cc1cccc(Br)c1)C(=O)O` (stereo not shown) [compound 6669, 2-amino-3-(3-bromophenyl)propanoic acid], “Moderate (0.1 mM)”.
The same measure for “3-(thiophen-3-yl)propane-1,2-diol [compound 5604]”: “Moderate (0.1 mM)”; for “(2E)-3-(5-chlorothiophen-2-yl)prop-2-enoic acid [compound 5607]”: “Moderate (0.1 mM)”; for “dichloro-1,3-thiazole-4-carboxamide [compound 5616]”: “Moderate (0.1 mM)”.
The same measure for `NCc1cc(Cl)sc1Cl` [compound 587, 1-(2,5-dichlorothiophen-3-yl)methanamine]: “weak”.
Turning to “2-(2,6-dibromopyridin-4-yl)ethan-1-amine [compound 6612]”, the “Score” value is on record as “Moderate (0.1 mM)”.
Under `NNC(=O)Cc1csc(Cl)n1` [compound 5704, 2-(2-chloro-1,3-thiazol-4-yl)acetohydrazide] stands “Moderate (0.1 mM)”.
With `Nc1nc(C(F)(F)c2ccccc2)cs1` [compound 5697, 4-[difluoro(phenyl)methyl]-1,3-thiazol-2-amine], the “Score” value is listed as “Strong (0.01 mM)”.
Under “ethyl difluoro[5-(trifluoromethyl)thiophen-3-yl]acetate [compound 5707]” stands “Weak (Higher than 0.1 mM)”; under `O=C(O)/C=C/c1ccnc(Br)c1` [compound 6606, (2E)-3-(2-bromopyridin-4-yl)prop-2-enoic acid], “Weak (Higher than 0.1 mM)”; under `N=C(N)NCc1cccc(Br)n1` [compound 6636, N-[(6-bromopyridin-2-yl)methyl]guanidine], “Moderate (0.1 mM)”.
Under `NCCCc1ccnc(Br)c1` [compound 6649, 3-(2-bromopyridin-4-yl)propan-1-amine] stands “Moderate (0.1 mM)”; under “2,2-difluoro-2-[4-(trifluoromethyl)pyrimidin-2-yl]acetic acid [compound 6652]”, “Moderate (0.1 mM)”; under “2-(thiophen-3-yl)ethane-1-thiol [compound 5601]”, “Moderate (0.1 mM)”.
Consider “2-(2,6-dichloropyridin-4-yl)-2,2-difluoroacetic acid [compound 6628]”, for which the “Score” value is listed as “Weak (Higher than 0.1 mM)”.
Under “2-carbamimidamido-N-[2-(2,5-dichlorothiophen-3-yl)ethyl]acetamide [compound 5726]” stands “Moderate (0.1 mM)”.
The same measure for “2,2-difluoro-2-{6-[2-(trifluoromethyl)-1,3-thiazol-4-yl]pyridin-2-yl}acetic acid [compound 6658]”: “Moderate (0.1 mM)”; for `O=C(O)C(F)(F)c1cccc(-c2ccc(C(F)(F)F)cc2F)n1` [compound 6659, 2,2-difluoro-2-{6-[2-fluoro-4-(trifluoromethyl)phenyl]pyridin-2-yl}acetic acid]: “Moderate (0.1 mM)”; for `O=C(Nc1ccnc(Br)c1)c1ccnc(Br)c1` [compound 6607, 2-bromo-N-(2-bromopyridin-4-yl)pyridine-4-carboxamide]: “Strong (0.01 mM)”.
